# In ChEMBL document CHEMBL4043224, “d-Amino acid mutation of PMI as potent dual peptide inhibitors of p53-MDM2/MDMX interactions” (Bioorg Med Chem Lett, 2017):
# What was measured:
# [1] = Cytotoxicity against human U87 cells assessed as reduction in cell viability after 24 hrs by MTT assay; conditions: U-87 MG
# Cathepsin G [2] = biological target: T1, Cathepsin G (Homo sapiens, UniProt P08311); assay: Drug metabolism assessed as cathepsin G (unknown origin)-mediated compound hydrolysis after 8 hrs by RP-HPLC analysis; assay type: ADME
# T1 sequence (P08311 whole entry): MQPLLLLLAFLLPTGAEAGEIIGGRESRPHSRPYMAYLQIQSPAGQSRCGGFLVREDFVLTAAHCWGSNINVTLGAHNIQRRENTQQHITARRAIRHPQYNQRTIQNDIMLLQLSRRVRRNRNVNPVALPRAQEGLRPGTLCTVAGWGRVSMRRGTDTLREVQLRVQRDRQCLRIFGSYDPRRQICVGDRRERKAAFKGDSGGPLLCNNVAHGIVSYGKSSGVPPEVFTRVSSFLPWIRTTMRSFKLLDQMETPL
# Cathepsin G [3] = biological target: T1, Cathepsin G; assay: Drug metabolism assessed as cathepsin G (unknown origin)-mediated compound hydrolysis after 4 hrs by RP-HPLC analysis; assay type: ADME
Drug metabolism (Cathepsin G [2]),Drug metabolism (Cathepsin G [3]),Molecule,IC50 [1] [µM]
–,–,COc1ccc(C2=N[C@H](c3ccc(Cl)cc3)[C@H](c3ccc(Cl)cc3)N2C(=O)N2CCNC(=O)C2)c(OC(C)C)c1,5.93
–,–,CC(C)C[C@H](NC(=O)[C@H](CC(N)=O)NC(=O)[C@H](Cc1c[nH]c2ccccc12)NC(=O)[C@H](Cc1ccc(O)cc1)NC(=O)[C@H](CCC(=O)O)NC(=O)[C@H](C)NC(=O)[C@H](Cc1ccccc1)NC(=O)[C@H](CO)NC(=O)[C@@H](N)[C@@H](C)O)C(=O)N[C@@H](CC(C)C)C(=O)N[C@H](Cc1ccc(O)cc1)C(=O)N1CCC[C@H]1C(=O)O,30.9
–,–,CC(C)C[C@H](NC(=O)[C@H](CC(N)=O)NC(=O)[C@H](Cc1c[nH]c2ccccc12)NC(=O)[C@H](Cc1ccc(O)cc1)NC(=O)[C@H](CCC(=O)O)NC(=O)[C@H](C)NC(=O)[C@H](Cc1ccccc1)NC(=O)[C@H](CO)NC(=O)[C@@H](N)[C@@H](C)O)C(=O)N[C@@H](CC(C)C)C(=O)N[C@@H](C(=O)N1CCC[C@H]1C(=O)O)[C@H](C)O,45.7
Metabolite_Detected,–,CC(C)C[C@H](NC(=O)[C@H](CC(N)=O)NC(=O)[C@H](Cc1c[nH]c2ccccc12)NC(=O)[C@H](Cc1ccc(O)cc1)NC(=O)[C@H](CCC(=O)O)NC(=O)[C@H](C)NC(=O)[C@H](Cc1ccccc1)NC(=O)[C@H](CO)NC(=O)[C@@H](N)[C@@H](C)O)C(=O)N[C@@H](CC(C)C)C(=O)N[C@H](Cc1ccccc1)C(=O)N1CCC[C@H]1C(=O)O,54.3
–,–,CC(C)C[C@H](NC(=O)[C@H](CC(N)=O)NC(=O)[C@H](Cc1c[nH]c2ccccc12)NC(=O)[C@H](Cc1ccc(O)cc1)NC(=O)[C@H](CCC(=O)O)NC(=O)[C@H](C)NC(=O)[C@H](Cc1ccccc1)NC(=O)[C@H](CO)NC(=O)[C@@H](N)[C@@H](C)O)C(=O)N[C@@H](CC(C)C)C(=O)N[C@H](Cc1cnc[nH]1)C(=O)N1CCC[C@H]1C(=O)O,43.5
–,Metabolite_Detected,H-TSFAEYWNLLSP-OH,67.6
